Experiments:
[1] = target: T1, E. coli SC (^EcSC, beta ring, DnaN) (Escherichia coli, UniProt P0A988); assay: ITC, peptide interaction with E. coli sliding clamp; format: binding; conditions: for ΔH (kcal/mole): ITC 30° C. (303.15 K); for ΔH (kcal/mole) / Kd (nM) / ΔG (kcal/mole) / −TΔS (kcal/mole): Table 2A, ^EcSC, Ni = no specific interaction
T1 construct: inferred from the pET15b vector and the Ni-NTA/imidazole purification; made in house; host or cells: E. coli BL21 (DE3) pLys
Description: The DnaN protein was expressed from plasmids pET15b, containing the dnaN gene from E. coli, transfected in BL21 (DE3) pLys E. coli strain. Cells were grown in LB at 37° C. to OD 0.5, then induced by IPTG (0.1 mM) at 28° C. overnight. DnaN protein was first enriched on a Ni-NTA column, eluted with an imidazole step (300 mM) and further purified on a Source Q column in buffer containing 20 mM Tris HCl pH 7.5, 0.5 mM EDTA and 10% glycerol, using a gradient from 0 to 0.5 M NaCl. After a final ultracentrifugation (45K, 1 h, 20° C.), soluble proteins were concentrated on a Centricon 30K (Millipore) in the same buffer and stored at 4° C. in 2 M ammonium sulfate.
ITC experiments were performed on a iTC200 (Microcal Malvern Panalytical) or PEAQ-ITC instrument (Microcal Malvern Panalytical). The E. coli SC were washed extensively with ITC buffer (R1 buffer: 10 mM Hepes pH 7.4, 0.15 M NaCl, 3 mM EDTA) on Centrikon 10K at 4° C. before ITC experiments. […] Similarly, E. coli 70S ribosome particles were also washed extensively with ITC 70S buffer (50 mM Tris HCl pH7.5, 30 mM KCl, 70 mM NH4Cl, 7 mM MgCl2, 1 mM DTT, 5% glycerol) on Centrikon 100K at 4° C. before ITC experiments. […] […] Data were corrected from control experiments in which peptides were injected in ITC buffer solution. Each titration was performed at least twice. Analyses of experimental data were performed with AFFINImeter software (https://www.affinimeter.com; S4S, Santiago de Compostela, Spain).

[2] = tested on: E. coli 70S ribosome (^Ec70S); assay: ITC, peptide interaction with E. coli 70S ribosome; format: binding; conditions: ITC 30° C., Table 2B, ^Ec70S; for Kd: FITC peptides (*), values not well defined, weak interaction; for ΔG / ΔH / −TΔS: Ni = no specific interaction, FITC peptides (*) values not well defined
Description: E. coli MRE600 cells were grown at 37° C. in LB medium until OD^600=1. Cells were centrifuged at 4° C., and pellets were resuspended in buffer A (20 mM Tris HCl pH 7.5; 200 mM NH4Cl; 20 mM MgCl2; 0.1 mM EDTA; 6 mM β-mercaptoethanol) and lysed using a French press at 1.6 kbar. The crude lysate was centrifuged (18 200 rpm) for 30 mn at 4° C. The supernatant was further centrifuged (47000 rpm) at 4° C. for 4 hours and the pellet resuspended in 12.5 ml of buffer A. This solution was laid on a 30% sucrose cushion and centrifuged (34 000 rpm) for 19 hours at 4° C. The ribosome pellet was resuspended in 12.5 ml buffer B (20 mM Tris HCl pH 7.5; 50 mM NH4Cl; 10 mM MgCl2; 0.1 mM EDTA; 6 mM β-mercaptoethanol) and centrifuged again (18 200 rpm) for 1 hour at 4° C. The supernatant was concentrated on Centrikon 100K (Millipore) and washed extensively with ITC 70S buffer. Ribosome concentration was determined by UV absorption at 260 nm. Samples were snap frozen in liquid nitrogen and kept at −80° C.
ITC experiments were performed on a iTC200 (Microcal Malvern Panalytical) or PEAQ-ITC instrument (Microcal Malvern Panalytical). The E. coli SC were washed extensively with ITC buffer (R1 buffer: 10 mM Hepes pH 7.4, 0.15 M NaCl, 3 mM EDTA) on Centrikon 10K at 4° C. before ITC experiments. […] Similarly, E. coli 70S ribosome particles were also washed extensively with ITC 70S buffer (50 mM Tris HCl pH7.5, 30 mM KCl, 70 mM NH4Cl, 7 mM MgCl2, 1 mM DTT, 5% glycerol) on Centrikon 100K at 4° C. before ITC experiments. Peptides (100 to 400 μM) were titrated at 30° C. (303.15 K) in sequential injections (usually 2 μl each) into a SC (20 or 30 μM) or 70S (10 to 15 μM) solution. Data were corrected from control experiments in which peptides were injected in ITC buffer solution. Each titration was performed at least twice. Analyses of experimental data were performed with AFFINImeter software (https://www.affinimeter.com; S4S, Santiago de Compostela, Spain).
The lack of interaction with the ribosome of E. coli has been measured by ITC at 30° C.:
The interactions of these peptides with the E. coli SC (beta ring) and the ribosome were measured by ITC at […]: […]

E. coli D22 strain = assay: microbe, parasite or virus in culture; format: cell-based
E. coli D22 cells = conditions: FIG. 1
Description: FIG. 1 concerns the analysis of peptide penetration into E. coli cells. (a) Fluorescence microscopy of E. coli cells exposed to the three different FITC labeled peptides.
In order to analyse the penetration capacity of the peptides in E. coli D22 cells, FITC-labeled peptides were added to 1 ml of bacterial cultures (OD600=0.8) at a final concentration of 8 μg/ml. The cells were allowed to acquire the peptides for 1 h at 37° C., washed 3 times with 0.5 ml PBS, fixed with 1% formaldehyde solution in PBS for 45 min at room temperature, washed 3 times with 0.5 ml PBS and finally resuspended in 50 μl PBS. Cells were visualized using a Leica DM5500 microscope equipped with a 100× objective and images were processed using Fiji software. One-way ANOVA statistical analysis was performed with the R package.

Human PCNA = Human PCNA (Homo sapiens, UniProt P12004); assay: ITC, peptide interaction with human PCNA; format: binding; conditions: ITC 30° C., Human PCNA
Description: The inventors have compared the affinities of the prototypical P7 SC-binding peptide for the bacterial SC and for the eukaryotic functional homolog “Proliferating Cell Nuclear Antigen” PCNA. The same analysis was performed with the DPD1 peptide that contains a well-described specific PCNA Interacting Peptide (PIP) sequence ([…]).

T1 sequence (P0A988 whole entry): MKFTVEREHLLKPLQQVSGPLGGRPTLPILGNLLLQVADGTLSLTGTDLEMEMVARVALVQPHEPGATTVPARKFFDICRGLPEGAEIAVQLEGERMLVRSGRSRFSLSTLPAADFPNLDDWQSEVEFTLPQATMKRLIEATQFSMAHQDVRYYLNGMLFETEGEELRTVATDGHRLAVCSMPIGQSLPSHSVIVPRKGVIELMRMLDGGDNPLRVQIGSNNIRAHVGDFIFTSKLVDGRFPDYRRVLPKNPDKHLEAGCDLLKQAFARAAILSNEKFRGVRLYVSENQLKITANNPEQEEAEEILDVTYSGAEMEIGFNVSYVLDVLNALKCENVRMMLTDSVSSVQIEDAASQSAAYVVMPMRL
Sequence of Human PCNA (P12004 whole entry): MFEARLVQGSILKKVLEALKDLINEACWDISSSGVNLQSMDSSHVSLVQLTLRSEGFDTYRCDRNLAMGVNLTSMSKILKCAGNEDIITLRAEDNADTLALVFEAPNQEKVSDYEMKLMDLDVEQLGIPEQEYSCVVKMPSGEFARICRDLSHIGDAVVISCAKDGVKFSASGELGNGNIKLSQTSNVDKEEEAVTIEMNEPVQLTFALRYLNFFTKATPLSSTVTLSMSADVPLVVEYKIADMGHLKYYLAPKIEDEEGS

Row | Molecule | interaction with ^EcSC, in words ([1]; ITC 30° C.) | ΔH (kcal/mole) [1] | Kd (nM) ([1]; ITC 30° C.) | ΔG (kcal/mole) ([1]; ITC 30° C.) | −TΔS (kcal/mole) ([1]; ITC 30° C.) | Kd [2] | ΔG [2] | ΔH [2] | −TΔS [2] | MIC (μM) (E. coli D22 strain; D22 strain) | entry into E. coli cells, times less efficiently than P122 (E. coli D22 cells; FITC staining after exposure to equal amounts) | MIC (μg/ml) (E. coli D22 strain; D22 strain) | fold increase in MIC as compared to Py (E. coli D22 strain; E. coli D22) | penetration into E. coli cells, times more efficiently than P72 or P150 (E. coli D22 cells; average FITC signal of more than 100 bacteria) | interaction with E.coli SC, in words ([1]; ITC 30° C., specificity comparison with PCNA) | Kd (Human PCNA) | ΔH (Human PCNA)
1 | CC[C@H](C)[C@H](NC(=O)[C@@H]1CCCN1C(=O)[C@H](CCCNC(=N)N)NC(=O)[C@@H]1CCCN1C(=O)[C@@H]1CCCN1C(=O)[C@@H](NC(=O)[C@@H]1CCCN1C(=O)[C@H](CCCNC(=N)N)NC(=O)[C@@H]1CCCN1C(=O)[C@H](CC(C)C)NC(=O)[C@H](Cc1ccc(O)cc1)NC(=O)[C@H](CO)NC(=O)CNC(=O)[C@H](CCCCN)NC(=O)[C@H](CC(=O)O)NC(=O)[C@@H](NC(=O)[C@H](CCCCN)NC(=O)c1ccc2c(c1)C(=O)OC21c2ccc(O)cc2Oc2cc(O)ccc21)C(C)C)[C@@H](C)O)C(=O)N[C@@H](Cc1ccc(O)cc1)C(=O)N[C@@H](CC(N)=O)C(=O)N[C@@H](CCCNC(=N)N)C(=O)N[C@@H](CC(N)=O)C(=O)NCC(=O)N1CCC[C@H]1C(=O)N[C@@H](CCCNC(=N)N)C(=O)N[C@@H](CC1CCCCC1)C(=O)N[C@@H](Cc1ccccc1)C(=O)N[C@@H](CCC(N)=O)C(=O)N[C@@H](CC(C)C)C(=O)N[C@@H](CC(=O)O)C(=O)O [Peptide P72] | do not interact | Ni | Ni | Ni | Ni | > 10 µM | -5.98 kcal/mol | -8.92 kcal/mol | 2.94 kcal/mol | >269.9 µM | about 3 times | – | – | – | – | – | –
2 | CC[C@H](C)[C@H](NC(=O)[C@@H]1CCCN1C(=O)[C@H](CCCNC(=N)N)NC(=O)[C@@H]1CCCN1C(=O)[C@@H]1CCCN1C(=O)[C@@H](NC(=O)[C@@H]1CCCN1C(=O)[C@H](CCCNC(=N)N)NC(=O)[C@@H]1CCCN1C(=O)[C@H](CC(C)C)NC(=O)[C@H](Cc1ccc(O)cc1)NC(=O)[C@H](CO)NC(=O)CNC(=O)[C@H](CCCCN)NC(=O)[C@H](CC(=O)O)NC(=O)[C@@H](NC(=O)[C@H](CCCCN)NC(=O)c1ccc2c(c1)C(=O)OC21c2ccc(O)cc2Oc2cc(O)ccc21)C(C)C)[C@@H](C)O)C(=O)N[C@@H](Cc1ccc(O)cc1)C(=O)N[C@@H](CC(N)=O)C(=O)N[C@@H](CCCNC(=N)N)C(=O)N[C@@H](CC(N)=O)C(N)=O [Peptide P122] | do not interact | Ni | Ni | Ni | Ni | > 10 µM | -6.91 kcal/mol | -20.1 kcal/mol | 13.3 kcal/mol | 181 to 362 µM | – | 512 to 1024 µg/mL | 64 to 512 fold | about 3 times | – | – | –
3 | peptide that contains a well-described specific PCNA Interacting Peptide (PIP) sequence (QKKITDYF) [DPD1] | – | – | – | – | – | – | – | – | – | – | – | – | – | – | no interaction | 0.158 µM | -9.94 kcal/mol

From US12098217B2, “Fusion peptides as antimicrobial agents” (CENTRE NATIONAL DE LA RECHERCHE SCIENTIFIQUE, priority 2019, dated 2024)
